The term melting point denotes the temperature of the solid-liquid transition.

Turning to `CC[C@@]1(OC(=O)CCCBr)C(=O)OCc2c1cc1n(c2=O)Cc2c-1nc1ccccc1c2CO`, the melting point is 172 to 176 °C (dec.).

These data come from patent US7517891B2, “Camptothecin derivatives and improved synthetic methods” (Glyconix Corporation, priority 2005, dated 2009).
